# Data taken from US11413328B2, “Methods for treating inflammatory conditions of the lungs” (priority 2016, dated 2022).
# Assays:
# [1] = system: murine house dust mite/Freunds complete adjuvant driven model of allergic asthma; assay: Total and differential cell counts in BALF, HDM asthma model (Example 2); format: in vivo, BALB/c mice; settings: dexamethasone orally 1 mg/kg BID day 14; 48 hours post challenge
# Description: Female 7-10 weeks old BALB/c mice were randomly allocated into 7 study groups one day prior to study start and subcutaneously (SC) sensitized to house dust mite (100 μg HDM in 200 μL saline plus Freunds complete adjuvant in 0.9% saline). Mice were then intranasally (IN) challenged with HDM on day 14 (HDM 25 μg in 50 μL of saline). […] The initial dose was administered 60 minutes prior to challenge, and the subsequent doses approximately 6 hours apart. Airway inflammation: At 48 hours post challenge, bronchoalveolar lavage was performed washing the lungs with 3 volumes of cold PBS (0.4; 0.3 and 0.3 mL, total 1 mL). Total and differential leucocyte cell counts were determined on an automated haematological analyser Sysmex XT-2000iV.
# [2] = system: microbiota of the intestine; assay: 16S microbiota analysis, prophylactic defensin treatment in high fat diet model (Example 10); format: in vivo, mice
# Text: Mice were housed in trios, 4 cages per group. Feed intake was registered daily just before lights were turned off at […]. Individual mice were subjected to experimental procedures in altered order both group and cage wise. Mice were kept at room temperature under a 12-hour light/dark cycle at SPF standard conditions. The treatment regime is described in FIG. 38. Mice were fed either a high fat diet (HFD) or a low fat (LF) control diet. The HFD contained 4 subgroups; 1 hBD2, 1 HD5, 1 hBD2/HD5 and 1 standard HFD without supplementation of defensins. Defensin concentration was 1.2 mg hBD2 per kg mouse per day. HD5 was given in equimolar concentration to hBD2. […] Microbial analyses were carried out to study the microbiota of the intestine. Longitudinal 16S characterization was conducted on 4 paired samples from 60 mice, 240 samples in total. Each mouse was sampled prior to diet change, 1 week post diet change, 4 weeks post diet change and at termination, thus ensuring a thorough characterization of the faecal microbiota as a result of defensin treatment.
# [3] = system: microbiota of the intestine; assay: 16S microbiota analysis, interventional defensin treatment in diet-induced obese mice (Example 11); format: in vivo; settings: intervention
# Text: The experiment elucidates the effect of hBD2 and HD5 on the microbiota in diet-induced obese mice. A run-in period of 13 weeks where mice were fed a very HFD (60% energy from fat) preceded the intervention. Only mice meeting the criteria of a minimum of 12 gram weight gain (approximately 50% of initial bodyweight) during the run-in period were included in the final analyses. […] They were exposed to all experimental tests, but excluded from the analyses.
# Before the intervention all mice were MR scanned. Cages of mice were allocated to experimental groups based on their fat mass. All subsequent measures were paired with data from the same mouse before the intervention. A LFD (low fat diet) reference group was running in parallel. As controls for the intervention 2 additional groups were included: 1 very HFD and 1 LFD. Experimental mice stayed on the very HFD during the intervention. The mice were on the experimental diet for 10 weeks. They were co-housed throughout the experiment, 4 mice per cage, 3 cages per group. All tests ran over 3 days, 1 cage per group per day.
# Microbial analyses were carried out to study the microbiota of the intestine. Longitudinal 16S characterization was conducted on 4 paired samples from 60 mice, 240 samples in total. Each mouse was sampled prior to diet change, 1 week post diet change, 4 weeks post diet change and at termination, thus ensuring a thorough characterization of the faecal microbiota as a result of defensin treatment.
# [4] = system: Dextran Sodium Sulphate (DSS) induced colitis model; assay: Acute 10-day DSS induced colitis model (Example 7); format: in vivo, mice; settings: Pred 1 mg/kg orally daily
# Description: To determine and assess the anti-inflammatory effect of “hBD-2-albumin fusion C-terminal” in an acute 10-day Dextran Sodium Sulphate (DSS) induced colitis model in mice.
# “hBD-2-albumin C-terminal” was administered intravenously via the tail vein or subcutaneously with the use of a sterile 25G needle in a dosing volume of 10 ml/kg body weight. The animals received 1 dose daily for 10 […] days. The active control Prednisolone (Pred) was given orally by gavage at a dose of 1 mg/kg in a dosing volume of 10 ml/kg body weight OD.
compound,measurement,setting,value
"C[C@@H]1C[C@H]2[C@@H]3CCC4=CC(=O)C=C[C@]4(C)[C@@]3(F)[C@@H](O)C[C@]2(C)[C@@]1(O)C(=O)CO [Dexamethasone, reference compound]",neutrophil count in BALF,[1],failed to inhibit
human intestinal alpha defensin 5 (ATCYCRTGRCATRESLSGVCEISGRLYRLCCR; listed as Homo sapiens) [HD5],effect on microbial presence / microbial abundance,"[2]; 1.2 mg hBD2 per kg per day in feed, HD5 equimolar, combination 50% + 50%",affected primarily the microbial abundance
same,abundance of Allobaculum in the small intestine,"[2]; prophylaxis, p<0.02",statistically significant increase
same,abundance of Alloprevotella in the colon,[3]; HD5 p<0.02,increased the abundance of Alloprevotella statistically significantly
same,relative abundance of Bifidobacteriaceae in the small intestine,[3]; hBD2 p<0.0001,trend towards HD5 increasing the abundance
"C[C@]12C=CC(=O)C=C1CC[C@@H]1[C@@H]2[C@@H](O)C[C@@]2(C)[C@H]1CC[C@]2(O)C(=O)CO [Pred, Prednisolone]","histological injury, proximal part of the colon",[4],failed to significantly reduce
same,DAI,"[4]; day 9, p<0.05",significant inhibition
same,"histological injury, distal colon",[4]; p<0.01,did reduce
